According to patent US9498486B1, “Method for controlled release oral dosage of a vitamin D compound” (OPKO RENAL, LLC, priority 2007, dated 2016):

Columns and labels:
[1] = Example 1: single-dose pharmacokinetics of serum 25-hydroxyvitamin D3 in miniature swine; format: in vivo; conditions: Yucatan miniature swine
Experimental: Nine oral vitamin D formulations were prepared according to Table 3 below by homogeneously mixing the identified components in the amounts shown and filling the mixtures into hard gelatin capsules. Formulation 9 is an immediate-release formulation according to the prior art, wherein MIGLYOL 812N is the trade name for caprylic/capric triglycerides, available from CONDEA Chemie GmbH of Cranford, N.J., USA. […] Each group included five animals.
Blood was collected pre-dose, and at 0.5, 1, 2, 4, 6, 8, 12, 24, 48, 96, 168, 240, 336, 432, 504, 576, and 672 hours post dosing. Serum 25-hydroxyvitamin D3 levels were assayed by Liquid Chromatography/Mass Spectrometry/Mass Spectrometry (LC MS/MS).

[2] = Expected rise in serum 25-hydroxyvitamin D3 in a human after a single dose; format: in vivo; conditions: single dose of 50 μg to a human (about 60 kg)
[3] = 250 μg via intravenous injection, AVG

Row | SMILES | AUC (0-672 hr) ([1]; 250 μg 25-hydroxyvitamin D3 via intravenous injection, AVG) | BA ([1]; 250 μg via intravenous injection) | AUC (0-INF) [1, 3] | Cmax [1, 3] | T1/2 [1, 3] | Tmax [1, 3] | expected increase in serum levels of 25-hydroxyvitamin D3 [2]
1 | C=C1CC[C@H](O)C/C1=C/C=C1\CCC[C@]2(C)[C@@H]([C@H](C)CCCC(C)(C)O)CC[C@@H]12 [Group 10, 25-hydroxyvitamin D3] | 15038.0 ng·h/mL | 100.0% | 16616.1 ng·h/mL | 154.9 ng/mL | 132.4 h | 1.5 h | 
2 | C=C1CC[C@H](O)C/C1=C/C=C1\CCC[C@]2(C)[C@@H]([C@H](C)CCCC(C)(C)O)CC[C@@H]12 [25-hydroxyvitamin D3] |  |  |  |  |  |  | about 1.4 ng/ml
